This is an account of results in PubChem BioAssay (NCI).

Test systems include LXFL 529 NSCLC; KM20L2 colon; DMS 273 small cell lung; SNB-78 CNS; DLD-1 colon; XF 498 CNS; HOP-18 NSCLC; SN12K1 renal; P388 leukemia; P388/ADR leukemia; RXF-631 renal.
Common to all, as to test: NCI tumour cell line growth inhibition, 48 h

Each structure is given as a SMILES string. Where “and” joins values, the source holds several entries; their conditions need not be identical. Equal entries are not always repeated.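 The compound was tested at five concentrations on cells cultured in 96-well plates, with a 48-hour exposure period. The concentration for 50% growth inhibition is given as GI50. TGI: concentration producing complete growth inhibition.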

In the case of `COC(=O)C1=C(C)N2CCSC2(C)C(C(=O)OC)C1c1cccc(Cl)c1` (configuration not stated), the values for the TGI with LXFL 529 NSCLC and with KM20L2 colon were 72.5 µM and 43.4 µM, respectively.

As for `Nc1ccc(O)c2c1C(=O)c1c(N)ccc(O)c1C2=O`, the TGI with LXFL 529 NSCLC, in the test on DMS 273 small cell lung, in the test on SNB-78 CNS, in the test with DLD-1 colon and in the test on XF 498 CNS was greater than 100 µM in each case.

As for `CC[C@@]1(O)C(=O)OCc2c1cc1n(c2=O)Cc2cc3ccccc3nc2-1`, the TGI in the test on HOP-18 NSCLC is 2.14 µM; in the test on LXFL 529 NSCLC, 3.54 µM; in the test on KM20L2 colon it was 3.65 µM; in the test with DMS 273 small cell lung, 0.385 µM; in the test with SNB-78 CNS, greater than 20.5 µM; in the test with DLD-1 colon, 25.7 µM. The TGI in the test on XF 498 CNS turned out to be 0.259 µM; with SN12K1 renal, 1 µM; in the test with P388 leukemia, 0.42 µM; in the test on P388/ADR leukemia, 0.677 µM.

Regarding `COc1ccccc1CC(C)N` (configuration not stated), the TGI in the test on HOP-18 NSCLC, in the test with LXFL 529 NSCLC, in the test with KM20L2 colon, in the test with DMS 273 small cell lung, in the test with SNB-78 CNS and with DLD-1 colon was greater than 100 µM in each case. Besides, the TGI in the test on XF 498 CNS and in the test on RXF-631 renal was greater than 100 µM each time.

As for `O=C(NC(Cc1ccc(Br)cc1)C(=O)O)c1ccc(I)cc1` (configuration not stated), the TGI in the test with HOP-18 NSCLC, in the test on KM20L2 colon, in the test on DMS 273 small cell lung, in the test on SNB-78 CNS, in the test with DLD-1 colon and in the test with XF 498 CNS was greater than 100 µM each time. In addition, the TGI in the test with SN12K1 renal, with P388 leukemia and in the test on P388/ADR leukemia was greater than 100 µM in each case.

Turning to `CCN(CC)CC[n+]1ccc2c(C)c3[nH]c4ccc(O)cc4c3c(C)c2c1`, the GI50 with HOP-18 NSCLC was 5.6 µM; in the test on KM20L2 colon, 6.95 µM; in the test with DMS 273 small cell lung, 1.93 µM; with SNB-78 CNS, 5.71 µM; in the test on DLD-1 colon, 7.81 µM; with SN12K1 renal, 0.748 µM. For the same compound, the GI50 is 0.0256 µM with P388 leukemia and 5.08 µM with P388/ADR leukemia. The TGI in the test on HOP-18 NSCLC was 17.9 µM and 42.8 µM; in the test on LXFL 529 NSCLC, 20 µM; in the test with KM20L2 colon it was 35.8 µM and 46.4 µM; with DMS 273 small cell lung, 19.6 µM and 20.7 µM; in the test with SNB-78 CNS, 44.1 µM and 59.5 µM; in the test with DLD-1 colon, > 96.4 µM and 102 µM. In addition, the TGI was 11.9 µM and 16.6 µM in the test on SN12K1 renal; 2.48 µM and 4.85 µM in the test on P388 leukemia; 64.7 µM and 91.7 µM in the test with P388/ADR leukemia.

Take `CSc1nc(CO)c(CO)n1C`: the TGI in the test with HOP-18 NSCLC, in the test with KM20L2 colon, with DMS 273 small cell lung, in the test on SNB-78 CNS, with DLD-1 colon and in the test with XF 498 CNS was greater than 100 µM throughout. The TGI with SN12K1 renal, in the test on P388 leukemia and with P388/ADR leukemia was greater than 100 µM in each case.

As for `CN(C)CCNC(=O)c1cc(Cl)cc2cc3ccccc3nc12`, the TGI in the test with HOP-18 NSCLC is 21.3 µM; with KM20L2 colon, 1.42 µM; in the test with DMS 273 small cell lung it was 2.71 µM; with SNB-78 CNS, 7.56 µM; in the test with DLD-1 colon, 5.35 µM; with XF 498 CNS it was 3.37 µM. Further, the results for the TGI with SN12K1 renal and in the test on P388 leukemia were 3.34 µM and 20.1 µM, respectively.

On to `Cc1[nH]c(=O)[nH]c(=O)c1/C=C/C(=O)NC(CO)CS(=O)CS(C)=O` (configuration not stated), for which the TGI with HOP-18 NSCLC turned out to be 551 µM; in the test with KM20L2 colon, 328 µM; with DMS 273 small cell lung it was 117 µM; in the test with SNB-78 CNS, 97.5 µM; in the test on DLD-1 colon, 253 µM; in the test on XF 498 CNS it was 8.12 µM. Further, the TGI stood at 64.8 µM with SN12K1 renal, 74.8 µM with P388 leukemia and 225 µM with P388/ADR leukemia.
